Data on twelve compounds can be found in patent US20200181117A1, “SUBSTITUTED 3-HETEROARYLOXY-1H-PYRAZOLES AND SALTS THEREOF AND THEIR USE AS HERBICIDAL ACTIVE SUBSTANCES” (BAYER CROPSCIENCE AKTIENGESELLSCHAFT, priority 2017, published 2020).

Common to all, as to format: in vivo
The subject of test [1] is Abutilon theophrasti. The experiment in a line: Post-emergence herbicidal action. Conditions: 1280 g/ha, rated visually after about 3 weeks vs untreated controls. Here is the method: (§1) A. Post-Emergence Herbicidal Action and Crop Plant Compatibility Seeds of monocotyledonous and dicotyledonous weeds and crop plants were placed in sandy loam in plastic or wood-fiber pots, covered with soil and cultivated in a greenhouse under controlled growth conditions. 2 to 3 weeks after sowing, the test plants were treated at the one-leaf stage. The compounds of the invention, formulated in the form of wettable powders (WP) or as emulsion concentrates (EC), were then sprayed onto the green parts of the plants as aqueous suspension or emulsion with addition of 0.5% additive at a water application rate of 600 l/ha (converted). After the test plants had been kept in the greenhouse under optimum growth conditions for about 3 weeks, the activity of the preparations was rated visually in comparison to untreated controls. For example, 100% activity=the plants have died, 0% activity=like control plants. Tables B1 to B15 below show the effects of selected compounds of the general formula (I) according to Table I on various harmful plants and an application rate corresponding to 1280 g/ha, which were obtained by the experimental procedure mentioned above.

Test [2] deals with Amaranthus retroflexus. Nature of the test: Post-emergence herbicidal action. Conditions: 1280 g/ha, rated visually after about 3 weeks vs untreated controls. Here is the method: as §1
The subject of test [3] is Pharbitis purpurea. Nature of the test: Post-emergence herbicidal action. Particulars: 1280 g/ha, rated visually after about 3 weeks vs untreated controls. Here is the method: as §1
Test [4] concerns Viola tricolor. Nature of the test: Post-emergence herbicidal action. Particulars: 1280 g/ha, rated visually after about 3 weeks vs untreated controls. Here is the method:
as §1

Test [5] relates to Abutilon theophrasti. The experiment in a line: Pre-emergence herbicidal action. Particulars: 1280 g/ha, scored visually after about 3 weeks vs untreated controls. The source says: (§2) Pre-Emergence Herbicidal Action and Crop Plant Compatibility Seeds of monocotyledonous and dicotyledonous weed plants and crop plants were placed in plastic or wood fiber pots and covered with soil. The compounds of the invention, formulated in the form of wettable powders (WP) or as emulsion concentrates (EC), were then applied onto the surface of the covering soil as aqueous suspension or emulsion with addition of 0.5% additive at a water application rate of 600 l/ha (converted). After the treatment, the pots were placed in a greenhouse and kept under good growth conditions for the test plants. After about 3 weeks, the effect of the preparations was scored visually in comparison with untreated controls as percentages. For example, 100% activity=the plants have died, 0% activity=like control plants. Tables C1 to C14 below show the effects of selected compounds of the general formula (I) according to Table I on various harmful plants and an application rate corresponding to 1280 g/ha, which were obtained by the experimental procedure mentioned above.

For test [6], the system named is Amaranthus retroflexus. The experiment in a line: Pre-emergence herbicidal action. Particulars: 1280 g/ha, scored visually after about 3 weeks vs untreated controls.
Description: as §2

The test system of test [7] is Setaria viridis. The experiment in a line: Pre-emergence herbicidal action. Particulars: 1280 g/ha, scored visually after about 3 weeks vs untreated controls.
Description: as §2

The test system of test [8] is Stellaria media. The experiment in a line: Pre-emergence herbicidal action. Particulars: 1280 g/ha, scored visually after about 3 weeks vs untreated controls.
Description: as §2

Test [9] concerns Viola tricolor. The experiment in a line: Pre-emergence herbicidal action. Conditions: 1280 g/ha, scored visually after about 3 weeks vs untreated controls.
Description: as §2

The test system of test [10] is Polygonum convolvulus. The experiment in a line: Post-emergence herbicidal action. Particulars: 1280 g/ha, rated visually after about 3 weeks vs untreated controls. The method, then:
as §1

Test [11] has as its system Stellaria media. Nature of the test: Post-emergence herbicidal action. Particulars: 1280 g/ha, rated visually after about 3 weeks vs untreated controls. The method, then:
as §1

Test [12] relates to Alopecurus myosuroides. The experiment in a line: Pre-emergence herbicidal action. Particulars: 1280 g/ha, scored visually after about 3 weeks vs untreated controls.
Description: as §2

Test [13] relates to Avena fatua. The experiment in a line: Pre-emergence herbicidal action. Conditions: 1280 g/ha, scored visually after about 3 weeks vs untreated controls.
Description: as §2

Test [14] has as its system Matricaria inodora. The experiment in a line: Pre-emergence herbicidal action. Particulars: 1280 g/ha, scored visually after about 3 weeks vs untreated controls.
Description: as §2

The test system of test [15] is Polygonum convolvulus. The experiment in a line: Pre-emergence herbicidal action. Particulars: 1280 g/ha, scored visually after about 3 weeks vs untreated controls.
Description: as §2

Test [16] has as its system Veronica persica. Nature of the test: Pre-emergence herbicidal action. Particulars: 1280 g/ha, scored visually after about 3 weeks vs untreated controls.
Description: as §2

The test system of test [17] is Setaria viridis. Nature of the test: Post-emergence herbicidal action. Particulars: 1280 g/ha, rated visually after about 3 weeks vs untreated controls. Here is the method:
as §1

Test [18] deals with Echinochloa crus-galli. Nature of the test: Pre-emergence herbicidal action. Conditions: 1280 g/ha, scored visually after about 3 weeks vs untreated controls.
Description: as §2

In the case of `CCc1c(Sc2cccc(Cl)c2)c(Oc2ncc(F)cn2)nn1C` [Example I-034], the “herbicidal activity on Abutilon theophrasti” value in test [1] and in test [5] was 80% in each case. In addition, the “herbicidal activity on Amaranthus retroflexus” value in [2] and in test [6] was 100% in each case. For the same compound, in test [3], the “herbicidal activity on Pharbitis purpurea” value worked out at 90%. In addition, the “herbicidal activity on Viola tricolor” value in [4] and in test [9] was 100% in each case. Besides, the “herbicidal activity on Setaria viridis” value in [7] was 100%. Also, the “herbicidal activity on Stellaria media” value in test [8] came out at 90%.

Regarding `CCc1c(Sc2cccc(Cl)c2)c(Oc2ncccn2)nn1C` [Example I-035], the “herbicidal activity on Abutilon theophrasti” value in [1] was found to be 100%. In test [10], the “herbicidal activity on Polygonum convolvulus” value is 100%. Moreover, the “herbicidal activity on Stellaria media” value in [11] was 80%. For the same compound, the “herbicidal activity on Viola tricolor” value in [4] and in test [9] was 100% throughout. Moreover, the “herbicidal activity on Amaranthus retroflexus” value in [6] was 90%. For the same compound, in [7], the “herbicidal activity on Setaria viridis” value was 90%.

For `CC(C)n1cc(Sc2ccc(F)cc2)c(Oc2ncccn2)n1` [Example I-039], the “herbicidal activity on Viola tricolor” value in [4] and in [9] was 100% each time. Further, in test [5], the “herbicidal activity on Abutilon theophrasti” value worked out at 100%. Further, the “herbicidal activity on Alopecurus myosuroides” value in [12] is 100%. For the same compound, the “herbicidal activity on Amaranthus retroflexus” value in [6] is listed as 100%. The “herbicidal activity on Avena fatua” value in test [13] is 90%. Also, the “herbicidal activity on Matricaria inodora” value in test [14] is 90%. The “herbicidal activity on Polygonum convolvulus” value in test [15] turned out to be 90%. Besides, the “herbicidal activity on Setaria viridis” value in [7] is given as 90%. The “herbicidal activity on Stellaria media” value in test [8] is reported as 100%. Also, the “herbicidal activity on Veronica persica” value in [16] worked out at 100%.

Consider `CCn1cc(Sc2ccccc2)c(Oc2ncccn2)n1` [Example I-042], for which the “herbicidal activity on Polygonum convolvulus” value in test [10] was determined as 80%. Further, the “herbicidal activity on Amaranthus retroflexus” value in test [6] turned out to be 80%. Also, the “herbicidal activity on Matricaria inodora” value in test [14] came out at 90%. Further, the “herbicidal activity on Setaria viridis” value in [7] was 80%. In addition, the “herbicidal activity on Stellaria media” value in [8] is listed as 100%. Also, in [16], the “herbicidal activity on Veronica persica” value is listed as 100%. Moreover, the “herbicidal activity on Viola tricolor” value in [9] was 90%.

With `CCc1c(Sc2ccc(F)cc2)c(Oc2ncccn2)nn1C` [Example I-064], the “herbicidal activity on Abutilon theophrasti” value worked out at 80% in test [1] and 100% in [5]. The “herbicidal activity on Amaranthus retroflexus” value in [2] and in test [6] was 100% in each case. The “herbicidal activity on Polygonum convolvulus” value in test [10] and in [15] was 100% throughout. The “herbicidal activity on Setaria viridis” value in test [17] and in test [7] was 100% each time. In addition, the “herbicidal activity on Stellaria media” value in test [11] and in test [8] was 100% in each case. Further, the “herbicidal activity on Viola tricolor” value in test [4] and in test [9] was 100% throughout. In addition, the “herbicidal activity on Alopecurus myosuroides” value in test [12] is 90%. In addition, in test [18], the “herbicidal activity on Echinochloa crus-galli” value is recorded as 90%. In test [14], the “herbicidal activity on Matricaria inodora” value was determined as 90%. In addition, the “herbicidal activity on Veronica persica” value in test [16] is given as 100%.

For `Cc1ccnc(Oc2nn(C)c(C)c2Sc2cccc(Cl)c2)n1` [Example I-096], the “herbicidal activity on Abutilon theophrasti” value in test [1] was 80%; in test [5], 100%. The “herbicidal activity on Alopecurus myosuroides” value in test [12] is given as 100%. Moreover, in [6], the “herbicidal activity on Amaranthus retroflexus” value was 100%. Moreover, the “herbicidal activity on Echinochloa crus-galli” value in test [18] turned out to be 80%. The “herbicidal activity on Matricaria inodora” value in [14] is 100%. For the same compound, in test [15], the “herbicidal activity on Polygonum convolvulus” value is reported as 100%. Besides, the “herbicidal activity on Setaria viridis” value in test [7] is 100%. In addition, the “herbicidal activity on Stellaria media” value in test [8] was 90%. Moreover, the “herbicidal activity on Veronica persica” value in [16] is given as 100%. Also, in test [9], the “herbicidal activity on Viola tricolor” value amounted to 100%.

Take `CCn1cc(Sc2ccc(F)cc2)c(Oc2ncc(Cl)cn2)n1` [Example I-121]: the “herbicidal activity on Amaranthus retroflexus” value in test [2] amounted to 80%; in test [6] it was 100%. Moreover, the “herbicidal activity on Polygonum convolvulus” value in test [10] is on record as 80%; in [15] it was 90%. Further, the “herbicidal activity on Viola tricolor” value in [4] was 80%; in [9], 100%. In addition, the “herbicidal activity on Setaria viridis” value in [7] is 90%. Besides, the “herbicidal activity on Stellaria media” value in test [8] was 80%. Also, in [16], the “herbicidal activity on Veronica persica” value stood at 100%.

As for `CCn1cc(Sc2ccccc2)c(Oc2ncc(Cl)cn2)n1` [Example I-138], the “herbicidal activity on Viola tricolor” value in test [4] worked out at 80%; in [9], 90%. Besides, the “herbicidal activity on Abutilon theophrasti” value in [5] turned out to be 80%. Besides, the “herbicidal activity on Polygonum convolvulus” value in [15] worked out at 80%. For the same compound, the “herbicidal activity on Setaria viridis” value in test [7] is 100%. The “herbicidal activity on Veronica persica” value in [16] is listed as 100%.

Consider `COc1cnc(Oc2nn(C)c(C)c2Sc2ccc(F)cc2Cl)nc1` [Example I-156], for which the “herbicidal activity on Amaranthus retroflexus” value in test [2] and in [6] was 100% in each case. Besides, the “herbicidal activity on Polygonum convolvulus” value in test [10] is on record as 80%; in test [15] it was 100%. The “herbicidal activity on Viola tricolor” value in test [4] and in [9] was 100% each time. For the same compound, the “herbicidal activity on Abutilon theophrasti” value in [5] is recorded as 90%. In addition, in test [18], the “herbicidal activity on Echinochloa crus-galli” value is 80%. Besides, the “herbicidal activity on Matricaria inodora” value in [14] was 100%. For the same compound, in test [7], the “herbicidal activity on Setaria viridis” value came to 100%. In addition, in [8], the “herbicidal activity on Stellaria media” value worked out at 100%.

Regarding `CCn1cc(Sc2ccc(Cl)cc2)c(Oc2ncc(F)cn2)n1` [Example I-160], the “herbicidal activity on Viola tricolor” value in [4] and in test [9] was 100% each time. In [15], the “herbicidal activity on Polygonum convolvulus” value amounted to 80%. Moreover, in test [16], the “herbicidal activity on Veronica persica” value came to 100%.

For `CCc1c(Sc2cccc(F)c2)c(Oc2ncc(F)cn2)nn1C` [Example I-203], the “herbicidal activity on Abutilon theophrasti” value in test [1] came to 100%; in test [5], 90%. Also, the “herbicidal activity on Amaranthus retroflexus” value in test [2] and in test [6] was 100% throughout. Further, in test [3], the “herbicidal activity on Pharbitis purpurea” value is listed as 90%. The “herbicidal activity on Setaria viridis” value in test [17] is listed as 90%; in test [7], 100%. The “herbicidal activity on Stellaria media” value in test [11] turned out to be 90%; in [8] it was 80%. Moreover, the “herbicidal activity on Viola tricolor” value was determined as 100% in [4] and 90% in [9]. Further, the “herbicidal activity on Alopecurus myosuroides” value in test [12] stood at 90%. In addition, the “herbicidal activity on Echinochloa crus-galli” value in test [18] worked out at 80%. Moreover, the “herbicidal activity on Matricaria inodora” value in [14] is reported as 80%. Further, the “herbicidal activity on Polygonum convolvulus” value in [15] is listed as 80%. In addition, in [16], the “herbicidal activity on Veronica persica” value stood at 100%.

Take `Cn1cc(Sc2ccc(Cl)cc2)c(Oc2cnc(Cl)nc2)n1` [Example I-230]: the “herbicidal activity on Viola tricolor” value in [4] is on record as 80%.
